The text below walks through data of US20230218754A1, “PHARMACEUTICAL COMPOSITIONS WITH ANTI-RANKL ANTIBODIES, CALCIUM AND VITAMIN D” (priority 2016, published 2023).

Several values for one entry are separate records, joined by “and”; a condition that tells them apart may be missing. Equal values may be shown once.

For data set [1] the following is noted: background statement; cited from earlier work.
The nature of data set [2]: serum calcium level in patients under denosumab plus calcium and vitamin D3. The class given is in vivo, human. How it is done:
The following data from an oncological patient (prostate cancer) in Table 5 show the serum levels of calcium and vitamin D3 in administration of 120 mg of denosumab (anti-RANKL antibody, Xgeva) every 4 weeks and the oral administration of 500 mg of calcium daily and 1000 IU of vitamin D3 daily.
In Table 5, the patient received 120 mg of denosumab every 4 weeks and 500 mg of calcium and 1000 IU of vitamin D3:
The following data from osteoporosis patients in Table 6 show the serum values of calcium and vitamin D3 in administration of 60 mg of anti-RANKL antibody/denosumab (Prolia) every 6 months and the oral administration of 500 mg of calcium daily and 1000 IU of vitamin D3 daily.
In Table 6, the osteoporosis patients received 60 mg of denosumab every 6 months, 500 mg of calcium daily, and 1000 IU of vitamin D3, also daily: […]

Data set [3] can be described thus: chair-rising test (standing up test) in osteoporosis patients. As to conditions: 60 mg denosumab (Prolia) + 500 mg calcium + 1000 IE vitamin D3. The class given is in vivo, human. The procedure: The so-called “chair-rising test” (standing up test) was carried out in 3 patients.
The chair-rising test (standing up test) allows a determination to made concerning the strength and falling risk of the test person. The test person is asked to stand up and sit back down five times as quickly as possible with his/her arms folded over his/her chest and without using them from a chair of ordinary height (approximately 46 cm seat height). If the patient is not capable of doing this, the number of successful completions are counted rather than the seconds. If the patient takes longer than 10-11 seconds, it must be assumed that he/she is at increased risk of falling.
The improvement is given in the right column in %.

Data set [4] is described as follows: 25(OH) vitamin D3 serum concentration under vitamin D maintenance dose in patients with vitamin D deficiency. The class given is in vivo, human. Conditions: maintenance dose of 400 IU of vitamin D daily.
Assay in data set [5]: as above
The class given is in vivo, human. The source says:
Vitamin D deficiency is a common diagnosis in osteology practice. […] The maintenance dose was 1000 IU of vitamin D daily.

In the case of `C=C1/C(=C\C=C2/CCC[C@]3(C)[C@@H]([C@H](C)CCCC(C)(C)O)CC[C@@H]23)C[C@@H](O)C[C@@H]1O` [calcitriol, 1α,25-dihydroxycholecalciferol], in data set [1], the “time to maximum serum concentration after intake” value is recorded as “three to six”.
For the compound “denosumab: anti-RANKL antibody approved as a medicinal preparation; marketed by Amgen as Prolia (60 mg) and Xgeva (120 mg)”, the “Calcium (serum)” value in data set [2] (oncological patient (prostate cancer), 120 mg denosumab (Xgeva) every 4 weeks + 500 mg calcium and 1000 IU vitamin D3 daily, after 13 weeks) was 2.11 mmol/L; in data set [2] (oncological patient (prostate cancer), 120 mg denosumab (Xgeva) every 4 weeks + 500 mg calcium and 1000 IU vitamin D3 daily, after 26 weeks) it was 2.12 mmol/L; in data set [2] (osteoporosis patients, 60 mg denosumab (Prolia) every 6 months + 500 mg calcium and 1000 IU vitamin D3 daily, after 13 weeks), 2.34 mmol/L and 2.32 mmol/L and 2.3 mmol/L and 2.37 mmol/L; in data set [2] (osteoporosis patients, 60 mg denosumab (Prolia) every 6 months + 500 mg calcium and 1000 IU vitamin D3 daily, after 26 weeks) it was 2.32 mmol/L and 2.45 mmol/L. The “Chair Rising time repeated 6 months later” value in data set [3] (osteoporosis patients, 6 months after beginning therapy) was 8 s and 10 s. Moreover, in data set [3] (three osteoporosis patients, 6 months), the “reduction of the risk of falling” value was 11-29%.
Regarding vitamin D, the “maintaining the vitamin D concentration at the standard level” value in data set [4] is “not sufficient”. The “25(OH) vitamin D3 serum concentration at maintenance dose of 1000 IU of vitamin D daily” value in data set [5] (individual female patients with initial vitamin D deficiency, 1000 IU vitamin D daily) was 29.2 ng/mL and 30.4 ng/mL and 28.8 ng/mL and 23.7 ng/mL and 23.2 ng/mL and 30.5 ng/mL and 25.5 ng/mL and 23.4 ng/mL. In addition, the “maintaining the vitamin D level in the normal range” value in data set [5] (maintenance dose of 1000 IU of vitamin D daily) was “suitable”.
